Values quoted from earlier work, collected in patent publication US20240398903A1, “COMPOSITION AND METHODS OF TREATMENT USING […] - ENHANCED SUPPLEMENTATION” (Xygenyx Inc., priority 2023, published 2024).

How the values were obtained:
[1] = system: skin; conditions: penetration enhancer for transdermal drugs
[2] = mice
[3] = system: wide dynamic range neurons in the ventroposterolateral nucleus of the thalamus; conditions: in vivo
[4] = in vivo
[5] = system: skin; conditions: topical, concentrations 0.5-5%
[6] = as compared to α-tocopherol (factor 1.0)
[7] = in vivo; remark: listed apart in the source
[8] = even when dietary intake occurs in equal portions

For `CC12CCC(CC1)C(C)(C)O2` [eucalyptol, 1,8-epoxy-p-menthane], the “increase of drug uptake via the transdermal route (factor)” value [1] is listed as “more than 10”.
In the case of `CC(CN)C(=O)O` [L-BAIBA, L-beta-aminoisobutyric acid], the tolerated dose [2] is listed as 10-100 mg/kg of bodyweight.
In the case of `CCCCCc1cc(O)c2c(c1)OC(C)(C)C1CCC(C)=CC21` (stereo not drawn) [THC, Δ-9-tetrahydrocannabinol], the “power in mediating pain relative to morphine” value [3] is listed as “ten times more powerful than morphine”.
In the case of `CCNC(=O)CC[C@H](N)C(=O)O` [Theanine], the “dose considered safe and well-tolerated” value [4] is given as “up to 400 mg per day”.
For `C=CCCCCCCCCC(=O)N[C@@H](Cc1ccccc1)C(=O)O` [UP, Undecylenoyl phenylalanine], the “time of treatment to skin lightening effects” value [5] is listed as no less than 7 days.
For `Cc1cc(O)cc2c1O[C@](C)(CCC[C@H](C)CCC[C@H](C)CCCC(C)C)CC2` [δ-tocopherol], the relative biological activity [6] is given as 0.03.
In the case of “HGH: hormone comprising a peptide chain that is synthesized in the pituitary gland”, the biological half-life [7] is given as 10-20 minutes.
In the case of `CC(C)[C@@H]1CC[C@@H](C)C[C@H]1O` [Menthol], the “increase of drug uptake via the transdermal route (factor)” value [1] is given as no less than 10.
In the case of `Cc1c(C)c2c(c(C)c1O)CC[C@@](C)(CCC[C@H](C)CCC[C@H](C)CCCC(C)C)O2` [α-tocopherol], the relative biological activity [6] is given as 1.0, the “reducing the risk of coronary disease” value (dietary supplementation, doses up to 400 IU/day) is given as “up to 34%” and the “reduce the risk of developing neurodegenerative diseases such as Alzheimer's Syndrome or dementia” value (dietary supplementation, doses up to 400 IU/day, controlled trials) is given as no more than 24%. For the same compound, the “reduction in the development of age-related cataracts” value (in combination with 10-20 mg β-carotene and 400-500 mg vitamin C) was 23%.
For `Cc1c(O)cc2c(c1C)O[C@](C)(CCC[C@H](C)CCC[C@H](C)CCCC(C)C)CC2` [γ-tocopherol], the “concentration in vivo relative to α-tocopherol” value [8] is given as “roughly 10%” and the relative biological activity [6] is given as 0.1.
For `Cc1cc(O)c(C)c2c1O[C@](C)(CCC[C@H](C)CCC[C@H](C)CCCC(C)C)CC2` [β-tocopherol], the relative biological activity [6] is given as 0.5.
